In ChEMBL document CHEMBL1201862, “PubChem BioAssay data set” (2004):
Activity calls are given as the source filed them. Non-standard residues stand in square brackets, D forms with d. Residues, ends and D or L forms follow the SMILES beside them. ξ: configuration not given here. *: point of attachment. Trx = NC[C@H]1CC[C@H](C(=O)O)CC1; Tic = O=C(O)[C@@H]1Cc2ccccc2CN1; Ile(3ξ) = CCC(C)[C@H](N)C(=O)O; Boc = CC(C)(C)OC(=O)*

What was measured:
[1] = target: T1, High affinity choline transporter 1 (Homo sapiens, UniProt Q9GZV3); test: CHT inhibitors, dose response, cell-based, 5-point CRC, membrane potential dye (AID 504840); format: functional
T1 sequence (Q9GZV3 whole entry): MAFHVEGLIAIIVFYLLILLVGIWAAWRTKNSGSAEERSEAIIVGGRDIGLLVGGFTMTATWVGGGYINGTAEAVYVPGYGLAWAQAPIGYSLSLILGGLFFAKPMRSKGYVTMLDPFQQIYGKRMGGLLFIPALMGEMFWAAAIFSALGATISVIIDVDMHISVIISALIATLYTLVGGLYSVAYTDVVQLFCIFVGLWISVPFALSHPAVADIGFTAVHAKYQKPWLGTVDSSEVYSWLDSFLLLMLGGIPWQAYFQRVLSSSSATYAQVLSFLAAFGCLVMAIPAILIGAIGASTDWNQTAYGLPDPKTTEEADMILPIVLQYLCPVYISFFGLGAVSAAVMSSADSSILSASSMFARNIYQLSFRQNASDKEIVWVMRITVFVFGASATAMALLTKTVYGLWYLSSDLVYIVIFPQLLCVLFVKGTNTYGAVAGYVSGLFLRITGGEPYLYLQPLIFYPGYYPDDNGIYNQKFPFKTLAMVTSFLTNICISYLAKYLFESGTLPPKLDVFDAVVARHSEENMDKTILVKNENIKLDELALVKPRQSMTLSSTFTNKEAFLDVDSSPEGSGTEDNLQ

[2] = miR-122 activators in hepatoma reporter cells, dose response, cell-based, Huh7 psiCHECK-miR122, Renilla luciferase, cherry-picked (AID 651956); format: functional;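 further: huh7 hepatoma cells stably carrying a psiCHECK-2 miR-122 sensor plasmid; renilla luciferase signal reporting endogenous miR-122 activity after 48 h compound exposure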
[3] = target: T2, Carboxy-terminal domain RNA polymerase II polypeptide A small phosphatase 1 (Homo sapiens, UniProt Q9GZU7); test: inhibitors of CTDSP1, concentration-response testing, biochemical assay, absorbance-based, actives from ultra-high-throughput screening (AID 540297); format: functional
T2 sequence (Q9GZU7 whole entry): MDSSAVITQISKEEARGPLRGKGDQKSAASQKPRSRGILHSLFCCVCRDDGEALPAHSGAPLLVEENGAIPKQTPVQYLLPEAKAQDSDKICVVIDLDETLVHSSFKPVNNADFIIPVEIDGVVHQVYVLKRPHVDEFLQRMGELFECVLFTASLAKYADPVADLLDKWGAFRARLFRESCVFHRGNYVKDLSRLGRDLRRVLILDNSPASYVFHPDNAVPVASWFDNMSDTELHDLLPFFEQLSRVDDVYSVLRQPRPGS

[4] = target: T3, Corticotropin-releasing factor receptor 2/Corticotropin-releasing factor-binding protein (Homo sapiens, UniProt P24387+Q13324); test: Dose Response confirmation of uHTS hits for small molecule antagonists of the CRF-binding protein and CRF-R2 receptor complex.; format: functional; settings: read-out: IC50_Mean
T3 sequence (Q13324 whole entry): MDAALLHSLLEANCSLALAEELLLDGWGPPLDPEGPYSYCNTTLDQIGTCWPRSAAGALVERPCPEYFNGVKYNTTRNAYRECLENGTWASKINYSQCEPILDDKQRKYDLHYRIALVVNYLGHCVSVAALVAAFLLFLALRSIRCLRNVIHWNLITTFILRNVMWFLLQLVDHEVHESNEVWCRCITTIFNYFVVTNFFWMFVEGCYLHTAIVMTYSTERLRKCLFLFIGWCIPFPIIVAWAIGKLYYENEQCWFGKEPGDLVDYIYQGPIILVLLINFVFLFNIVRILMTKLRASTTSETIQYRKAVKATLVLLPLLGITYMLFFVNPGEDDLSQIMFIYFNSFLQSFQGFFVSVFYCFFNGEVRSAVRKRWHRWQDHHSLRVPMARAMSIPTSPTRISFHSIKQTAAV
T3 sequence (P24387 whole entry): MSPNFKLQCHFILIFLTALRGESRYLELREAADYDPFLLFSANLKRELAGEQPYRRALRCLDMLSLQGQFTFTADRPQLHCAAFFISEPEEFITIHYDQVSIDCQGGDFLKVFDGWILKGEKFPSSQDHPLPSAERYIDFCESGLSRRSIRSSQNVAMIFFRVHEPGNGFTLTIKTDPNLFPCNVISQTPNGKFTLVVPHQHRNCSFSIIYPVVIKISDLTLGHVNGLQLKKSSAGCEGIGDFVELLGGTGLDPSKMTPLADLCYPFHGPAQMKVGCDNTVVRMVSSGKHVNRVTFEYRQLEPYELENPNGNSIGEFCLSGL

[5] = target: T3, Corticotropin-releasing factor receptor 2/Corticotropin-releasing factor-binding protein; test: activators of CRF receptor 2 with binding protein – uHTS hits, confirmation (AID 602473); format: functional; settings: read-out: EC50_Mean
[6] = growth suppression of PTEN-null colon cells, dose response, cell-based, HCT116 PTEN knockout (AID 1047); format: functional;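 further: HCT116 colon tumor cells with PTEN knocked out; cells exposed to compound for 60 hours before readout; potency for loss of cell viability measured by luminescence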
[7] = growth suppression of beta-catenin-knockout colon cells, dose response, cell-based, HCT116, human colon tumor (AID 1045); format: functional;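 further: HCT116 colon tumor cells with beta catenin knocked out; cells exposed to compound for 60 hours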
[8] = control 3'UTR Renilla luciferase suppression, dose response, counter-screen for Shn3 inhibitor project, cell-based, Clone20-Shn3RL, cherry-picked (AID 624133); format: functional
[9] = Shn3 3'UTR reporter inhibitors, dose response, cell-based, Clone20 osteoblasts, firefly luciferase, cherry-picked (AID 624132); format: functional;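 further: firefly luciferase luminescence from reporter carrying the Shn3 3'UTR in osteoblasts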
[10] = HepG2 cell cytotoxicity, dose response, cytotoxicity control for Shn3 inhibitor project, CellTiter-Glo, cherry-picked (AID 624134); format: functional, cell-based
Cytochrome P450 2C9 = Cytochrome P450 2C9 (Homo sapiens, UniProt P11712)
Cytochrome P450 3A4 = Cytochrome P450 3A4 (Homo sapiens, UniProt P08684);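 further: CYP3A4 tested as one member of a cytochrome P450 panel screen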
Cytochrome P450 2D6 = Cytochrome P450 2D6 (Homo sapiens, UniProt P10635);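 further: CYP2D6 member of a cytochrome P450 panel assay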
Cytochrome P450 2C19 = Cytochrome P450 2C19 (Homo sapiens, UniProt P33261); test: Cytochrome panel assay with activity outcomes. Panel member name: p450-cyp2c19 Compounds with AC50 equal or less than 10 uM are considered active; format: functional; settings: read-out: AC50
Cytochrome P450 2C19, sequence (P33261 whole entry): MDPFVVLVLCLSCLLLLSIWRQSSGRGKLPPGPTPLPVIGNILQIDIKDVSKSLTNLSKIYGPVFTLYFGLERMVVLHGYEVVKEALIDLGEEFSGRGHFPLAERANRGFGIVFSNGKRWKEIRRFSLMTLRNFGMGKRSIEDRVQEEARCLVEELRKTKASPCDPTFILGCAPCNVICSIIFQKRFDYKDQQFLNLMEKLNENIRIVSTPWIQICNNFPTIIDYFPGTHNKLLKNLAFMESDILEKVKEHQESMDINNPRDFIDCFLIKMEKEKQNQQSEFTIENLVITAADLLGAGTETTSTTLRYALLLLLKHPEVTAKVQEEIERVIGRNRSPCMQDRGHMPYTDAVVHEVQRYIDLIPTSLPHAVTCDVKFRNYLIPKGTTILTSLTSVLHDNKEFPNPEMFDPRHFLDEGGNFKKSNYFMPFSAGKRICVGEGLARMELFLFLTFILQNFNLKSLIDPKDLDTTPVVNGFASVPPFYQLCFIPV

Cytochrome P450 3A4, sequence (P08684 whole entry): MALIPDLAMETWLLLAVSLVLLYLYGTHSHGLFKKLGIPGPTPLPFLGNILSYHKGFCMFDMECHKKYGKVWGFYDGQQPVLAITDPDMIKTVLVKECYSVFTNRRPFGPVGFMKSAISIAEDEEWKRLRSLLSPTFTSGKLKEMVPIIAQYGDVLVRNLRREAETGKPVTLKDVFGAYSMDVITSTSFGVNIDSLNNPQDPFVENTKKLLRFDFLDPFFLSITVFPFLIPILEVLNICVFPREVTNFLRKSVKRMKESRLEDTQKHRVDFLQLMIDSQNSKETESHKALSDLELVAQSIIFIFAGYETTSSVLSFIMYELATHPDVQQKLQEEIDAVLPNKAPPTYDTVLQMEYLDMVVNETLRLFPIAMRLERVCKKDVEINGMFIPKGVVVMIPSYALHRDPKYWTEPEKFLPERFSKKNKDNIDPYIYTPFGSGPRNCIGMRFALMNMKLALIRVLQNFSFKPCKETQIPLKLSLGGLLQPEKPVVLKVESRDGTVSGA
Cytochrome P450 2D6, sequence (P10635 whole entry): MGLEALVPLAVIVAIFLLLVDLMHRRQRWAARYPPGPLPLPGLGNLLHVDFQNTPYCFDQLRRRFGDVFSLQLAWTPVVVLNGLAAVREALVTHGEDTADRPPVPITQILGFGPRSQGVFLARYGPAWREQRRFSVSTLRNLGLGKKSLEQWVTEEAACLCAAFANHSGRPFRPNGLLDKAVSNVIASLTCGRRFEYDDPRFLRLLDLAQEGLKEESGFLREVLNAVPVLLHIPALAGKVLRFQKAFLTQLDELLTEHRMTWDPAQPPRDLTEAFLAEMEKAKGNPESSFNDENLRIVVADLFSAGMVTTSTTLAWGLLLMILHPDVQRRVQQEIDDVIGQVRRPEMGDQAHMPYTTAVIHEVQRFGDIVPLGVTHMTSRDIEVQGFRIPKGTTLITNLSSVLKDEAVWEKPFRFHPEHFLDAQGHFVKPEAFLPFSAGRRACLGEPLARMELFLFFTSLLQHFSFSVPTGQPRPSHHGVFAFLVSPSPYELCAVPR
Cytochrome P450 2C9, sequence (P11712 whole entry): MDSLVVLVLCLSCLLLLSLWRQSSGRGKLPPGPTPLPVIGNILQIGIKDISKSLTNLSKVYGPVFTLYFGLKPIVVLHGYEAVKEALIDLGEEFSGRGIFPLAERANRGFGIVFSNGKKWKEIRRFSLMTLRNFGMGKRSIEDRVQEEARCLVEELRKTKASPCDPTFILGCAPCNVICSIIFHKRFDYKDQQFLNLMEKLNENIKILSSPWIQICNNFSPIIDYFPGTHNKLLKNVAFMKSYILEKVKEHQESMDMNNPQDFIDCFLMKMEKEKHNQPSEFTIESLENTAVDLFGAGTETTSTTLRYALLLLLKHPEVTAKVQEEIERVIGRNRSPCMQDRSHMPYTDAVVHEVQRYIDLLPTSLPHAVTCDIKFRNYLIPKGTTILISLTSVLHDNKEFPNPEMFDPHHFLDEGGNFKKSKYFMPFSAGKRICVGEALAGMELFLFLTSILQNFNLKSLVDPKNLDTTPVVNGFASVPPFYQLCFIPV

Cc1csc(=N)n1CC(=O)N1CCc2ccccc21
IC50 [1]: 13.2 µM (active)

Cc1ccc(-c2ccc3c(c2)O[C@H](CN(C)C(=O)CC2CC2)[C@H](C)CN([C@H](C)CO)S3(=O)=O)cc1
AC50 [2]: 10.7 µM (active)

Cc1ccn2c(=O)nc(SCC(=O)NCc3ccco3)nc2c1
IC50 [3]: 10.8 µM (active)

COc1cccc(-c2ccc3c(c2)O[C@H](CN(C)C(=O)C2CCOCC2)[C@H](C)CN([C@@H](C)CO)S3(=O)=O)c1
AC50 [2]: 6.42 µM (active)

COCCn1nnnc1C(c1ccccc1)N1CCN(c2ccccc2)CC1 (centres undefined)
IC50 [4]: > 47.1 µM (inactive)
EC50 [5]: > 53 µM (inactive)

CN1C(=O)c2cc(NS(=O)(=O)c3ccc(Cl)cc3)ccc2OC[C@H]2O[C@H](CC(=O)N3CCc4ccccc4C3)CC[C@@H]21
AC50 [2]: 14.8 µM (active)

COc1ccc(NC(=O)C(C)Sc2nnc3c4c(nc(-c5ccc(OC)cc5)n23)CC(C)(C)OC4)cc1 (centres undefined)
EC50 [6]: 27 µM (active)
EC50 [7]: 58.9 µM (active)

CC(C)(C)NC(=O)C(c1ccc(O)cc1)N(Cc1ccc2c(c1)OCO2)C(=O)CCl (centres undefined)
IC50 [4]: > 47.1 µM (inactive)
EC50 [5]: > 53 µM (inactive)

CCC(C)[C@H](NC(=O)[C@@H]1Cc2ccccc2CN1C(=O)OC(C)(C)C)C(=O)NC[C@H]1CC[C@H](C(=O)O)CC1 (some centres undefined) (Boc-[Tic]-[Ile(3ξ)]-[Trx]-OH)
IC50 [4]: > 47.1 µM (inactive)
EC50 [5]: > 53 µM (inactive)

Cc1ccc(S(=O)(=O)N2C[C@@H]3CCCC[C@@H]3[C@@H](C)[C@H]2c2cn(Cc3ccccc3)c3ncccc23)cc1
AC50 [8]: 4.12 µM (active)
AC50 [9]: 1.92 µM (active)
AC50 [10]: 2.47 µM (active)

CCc1ccc(N2C(=O)NC(=O)/C(=C\NCCN(CC)CC)C2=O)cc1
AC50 [8]: 27.8 µM (active)
AC50 [9]: > 70 µM (inactive)

O=[N+]([O-])c1ccc2nc(-c3ccccc3)n(OCc3ccc(Cl)cc3)c2c1
IC50 [3]: 10.1 µM (active)

O=C(CNC(=O)c1ccccc1)NCC(=O)OCc1ccc(Cl)cc1
AC50 (Cytochrome P450 2C9): 0.1 µM (inconclusive)
AC50 (Cytochrome P450 3A4): 14.1 µM (inconclusive)
AC50 (Cytochrome P450 2D6): 20 µM (inconclusive)
AC50 (Cytochrome P450 2C19): 20 µM (inconclusive)

CCOc1ccc(C(=O)OCC(=O)Nc2cccnc2Cl)cc1OCC
IC50 [4]: > 47.1 µM (inactive)
EC50 [5]: > 53 µM (inactive)

O=C(NNC(=O)C1CCN(S(=O)(=O)c2ccc(Cl)cc2)CC1)c1ccccc1O
AC50 [8]: 6.86 µM (active)
AC50 [9]: 18.5 µM (active)
AC50 [10]: 63.1 µM (active)

O=C(NCCCO)C(=O)Nc1cc2c3c(c1)CCN3C(=O)CC2
IC50 [4]: > 47.1 µM (inactive)
EC50 [5]: > 53 µM (inactive)

O=C(O)CCNc1ccc(Cl)cc1
IC50 [3]: 16.9 µM (active)

N=C(N)SCc1ccccn1
IC50 [1]: 13.2 µM (active)

CCOc1ccc2nc(O)c(CN(Cc3cccs3)C(CC)c3nnnn3C(C)(C)CC)cc2c1 (centres undefined)
EC50 [6]: 4.69 µM (active)
EC50 [7]: 5.11 µM (active)
